Test system: tested microorganisms fungi and bacteria
Assay: Anti-microbial activities (disc diffusion, all test organisms)
Assay type: cell-based
Conditions: filter paper discs
Procedure: Pathogenic Fungi: Aspergillus niger, Aspergillus fumigatus, Aspergillus flavus, Fusarium oxysporum and Candida albicans were cultured on sabaroud dextrous agar media (Oxioid CM 41) at 25° C.
Pathogenic bacteria: Staphylococcus aureus and Pseudomonas aeroginosa were cultured on Mueller Hinton media (Oxioid CM 41) at 37° C.
Biological activity: Antimicrobial activities of the 3-hydroxyl p-Anisaldehyde (C8H8O3) and p-Hydroxy-acetophenone (C8H8O2) compounds were tested against the fungal species Aspergillus niger, Aspergillus fumigatus, Aspergillus flavus, Fusarium oxysporum and Candida albicans. […]
Antifungal activities: The agar disc diffusion method was used to evaluate the antifungal activities of the tested compounds (Bauer, A.W., et al., Antibiotic susceptibility testing by a standard single disk diffusion method, Amer. J. Clin. Pathol. 45:493-496 (1966)). […] The diameter of the inhibition zones were measured in millimeters after 4 days at 25±2° C. […]
Antibacterial activities: Antibacterial activities of the tested compounds were employed by used the agar disc diffusion method Hasenekoglu (1990). Suspension of the tested bacteria (10^6 CFU/μl ,O.D was measured calorimetry using spectrophotometer (Spectro, labomed, Inc.) at […]) were spread on Mueller Hinton Agar (Oxioid). […] The diameter of the inhibition zones were measured in millimeters after 24 h at 37° C. […]

## CC(=O)c1ccc(O)cc1 [p-Hydroxyacetophenone]
  Inhibition of growth of tested microorganisms (clear zones around discs): have the ability to inhibit the growth

From patent publication US9700042B2, “Nanoformulation of musk-derived bioactive ingredients for nanocosmetic applications” (priority 2014, dated 2017)
